# According to publication PMC11079024, “Identification of a family of species-selective complex I inhibitors as potential anthelmintics” (Nature Communications, 2024):
# Like-named read-outs stand apart in the source and are kept apart here.
# Assays:
# [1] = test system: ben-1 mutant (ECA882) C. elegans; experiment: microbe, parasite or virus in culture; conditions: Caenorhabditis elegans; for viability at 15.6 µM / viability at 31.3 µM / viability at 62.5 µM / viability at 125 µM / viability at 250 µM / viability at 500 µM / viability at 1000 µM / viability at 1 µM / viability at 2 µM / viability at 3.9 µM: read-out: C. elegans ben-1(e1880) development/viability
# Procedure, shortened: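 Development and viability scored from single well images as total worm pixels divided by the matching DMSO control value, mean of ≥3 replicates. Worms added as synchronized L1s to HB101 suspension in liquid NGM with compound (1% DMSO v/v), grown 6 days at 20 °C with shaking.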
# [2] = test system: L1 wild-type C. elegans; conditions: for Relative Motility: worm motility 3 hours after removal of KCN, relative to DMSO controls, single biological replicate
# [3] = in vitro; conditions: human; for viability at 2 days, 12.5 µM / viability at 2 days, 25 µM / viability at 2 days, 50 µM / viability at 2 days, 100 µM / viability at 2 days, 3.13 µM / viability at 2 days, 6.25 µM: HEK293 cells (Flp-In-293); for viability at 2 days, 12.5 µM / viability at 2 days, 25 µM / viability at 2 days, 50 µM / viability at 2 days, 100 µM / viability / viability at 2 days, 3.13 µM / viability at 2 days, 6.25 µM: HEK293 viability
# [4] = test system: L1 wild-type C. elegans; experiment: microbe, parasite or virus in culture; conditions: Caenorhabditis elegans, read-out: C. elegans KCN Survival Assay LC50, estimated from fitted dose-response curves; mean of at least two biological replicates
# [5] = read-out: C. elegans (ben-1) Development & Viability Assay LC50
# [6] = read-out: C. elegans ben-1 log10 LC50 (converted)
# [7] = 50 μM, KCN survival assay, hit = relative motility below 0.25
# [8] = HEK293 Cell Viability Assay LC50, HEK293 cells, estimated from fitted dose-response curves
# [9] = 50 μM, hit = relative motility below 0.25 3 hours after removal of KCN
# [10] = Dose 0.2 µM, mean of at least three biological replicates
# [11] = 50 μM compound, hit = relative motility below 0.25 3 hours after removal of KCN
# [12] = HEK293 Cell Viability Assay LC50, HEK293 cells, estimated from fitted dose-response curves, mean of at least two biological replicates
Structure (SMILES),"LC50 [1, 5]","LC50 [1, 6]",LC50 [4],viability at 15.6 µM [1],viability at 31.3 µM [1],viability at 62.5 µM [1],viability at 125 µM [1],viability at 250 µM [1],viability at 500 µM [1],viability at 1000 µM [1],"Screen ""Hit"" [2, 9]","C. elegans KCN Survival [2, 10]",C. elegans KCN Survival ([2]; Dose 0.39 µM),C. elegans KCN Survival ([2]; Dose 1.56 µM),C. elegans KCN Survival ([2]; Dose 3.13 µM),C. elegans KCN Survival ([2]; Dose 6.25 µM),C. elegans KCN Survival ([2]; Dose 12.5 µM),C. elegans KCN Survival ([2]; Dose 25 µM),C. elegans KCN Survival ([2]; Dose 50 µM),C. elegans KCN Survival ([2]; Dose 100 µM),other results
Cc1ccc(Cn2c(C(C)C)nc3ccccc32)cc1 [Compound 6586153],419 µM,419 µM,24.9 µM,,,,,,,,,,,,,,,,,,"Screen ""Hit"" [2, 7]: Y (hits were identified as compounds that reduced relative motility below 0.25 (75% reduction)); CC50 at 2 days [3, 8]: > 100 µM"
Cc1ccc(CSCc2nc3ccccc3[nH]2)cc1 [Compound 7121781],468 µM,468 µM,9.79 µM,87.2%,91.7%,100%,87.1%,86.1%,47.1%,8.1%,Y (hits were identified as compounds that reduced relative motility below 0.25 (75% reduction)),1.008,0.850,0.802,0.857,0.615,0.348,0.053,0.003,0.000,"Relative Motility ([2]; 50 μM): 0.077; CC50 at 2 days [3]: 74.2 µM; viability at 2 days, 12.5 µM [3]: 90%; viability at 2 days, 25 µM [3]: 91.3%; viability at 2 days, 50 µM [3]: 64.3%; viability at 2 days, 100 µM [3]: 28.3%; viability ([3]; Dose 3.13 µM): 86.1%; viability ([3]; Dose 6.25 µM): 87.2%"
CCn1c(C(C)c2ccc(CC(C)C)cc2)nc2ccccc21 (centres unmarked) [STK951902],644 µM,644 µM,8.7 µM,,,,,,,,,,,,,,,,,,"Screen ""Hit"" [2, 11]: Y (hits were identified as compounds that reduced relative motility below 0.25 (75% reduction)); CC50 at 2 days [3, 12]: 31.7 µM"
C=CCn1c(C(C)c2ccc(CC(C)C)cc2)nc2ccccc21 (centres unmarked) [STL020755],285 µM,284 µM,9.97 µM,,,,,,,,,,,,,,,,,,"Screen ""Hit"" [2, 11]: Y (hits were identified as compounds that reduced relative motility below 0.25 (75% reduction)); CC50 at 2 days [3, 12]: 49.5 µM"
CCc1cc(OCCn2cnc3ccccc32)ccc1Cl [Compound 7925288],55.2 µM,55.2 µM,19.1 µM,94.7%,88%,39.9%,3.8%,3.3%,2.9%,1.8%,Y (hits were identified as compounds that reduced relative motility below 0.25 (75% reduction)),1.082,1.088,1.105,1.186,1.064,0.930,0.276,0.146,0.159,"viability at 1 µM [1]: 100%; viability at 2 µM [1]: 96%; viability at 3.9 µM [1]: 96.4%; CC50 at 2 days [3, 8]: 34.1 µM; viability at 2 days, 3.13 µM ([3]; Dose 3.13 µM): 91.4%; viability at 2 days, 6.25 µM ([3]; Dose 6.25 µM): 96.8%; viability at 2 days, 12.5 µM [3]: 93.6%; viability at 2 days, 25 µM [3]: 81.1%; viability at 2 days, 50 µM [3]: 8.7%; viability at 2 days, 100 µM [3]: 7.1%"
Clc1ccccc1OCCCCn1cnc2ccccc21 [Compound 7925804],49.2 µM,49.2 µM,6.97 µM,79%,79.6%,18.3%,6.8%,4.1%,3.2%,3.8%,,1.043,1.064,1.052,1.018,0.644,0.155,0.142,0.136,0.181,"viability at 1 µM [1]: 91.8%; viability at 2 µM [1]: 87.2%; viability at 3.9 µM [1]: 83.7%; Screen ""Hit"" [2, 7]: Y (hits were identified as compounds that reduced relative motility below 0.25 (75% reduction)); CC50 at 2 days [3, 12]: 40.2 µM; viability at 2 days, 3.13 µM ([3]; Dose 3.13 µM): 100%; viability at 2 days, 6.25 µM ([3]; Dose 6.25 µM): 99.5%; viability at 2 days, 12.5 µM [3]: 97.9%; viability at 2 days, 25 µM [3]: 73.8%; viability at 2 days, 50 µM [3]: 40.2%; viability at 2 days, 100 µM [3]: 8%"
"C=C(C)[C@H]1Cc2c(ccc3c2O[C@@H]2COc4cc(OC)c(OC)cc4[C@@H]2C3=O)O1 [Rotenone, reference compound]",,,,,,,,,,,,,,,,,,,,,"LC50 ([2]; N2 (wild type), caenorhabditis elegans): 0.86 µM; CC50 [3]: < 0.39 µM; viability ([3]; dose 0.4 µM, Mean of replicates): 33.2%; viability ([3]; dose 0.8 µM, Mean of replicates): 34.5%; viability ([3]; dose 0.8 µM, individual replicate (Rep)): 37.4%; viability ([3]; dose 3.1 µM, Mean of replicates): 47%; viability ([3]; dose 3.1 µM, individual replicate (Rep)): 46.6%; viability ([3]; dose 6.3 µM, Mean of replicates): 32.5%; viability ([3]; dose 6.3 µM, individual replicate (Rep)): 30.9%; viability ([3]; dose 12.5 µM, Mean of replicates): 26.9%; viability ([3]; dose 12.5 µM, individual replicate (Rep)): 27.1%; viability ([3]; dose 25 µM, Mean of replicates): 21.4%; viability ([3]; dose 25 µM, individual replicate (Rep)): 20.1%; viability ([3]; dose 50 µM, Mean of replicates): 20.1%; viability ([3]; dose 50 µM, individual replicate (Rep)): 20.4%"
CCCn1c(COc2ccc(C)cc2)nc2ccccc21 [Compound 6944471],> 1000 µM,> 500 µM,10.6 µM,98%,100%,100%,100%,100%,62.1%,100%,Y (hits were identified as compounds that reduced relative motility below 0.25 (75% reduction)),0.888,0.949,1.451,0.820,0.671,0.270,0.341,0.000,0.000,LC50 ([1]; read-out: C. elegans ben-1 LC50): > 500 µM; Relative Motility ([2]; 50 μM): 0.170
